Source: US20240124434A1, “ATF6 INHIBITORS AND USES THEREOF” (Altos Labs, Inc., priority 2018, published 2024)
≈ marks a conversion by molar mass, not a printed value.

Columns and labels:
ATF6 = test: ERSE ATF6-luciferase reporter assay (thapsigargin-induced ER stress); assay type: cell-based, human; details: for Inh. ATF6-Luc @ 1 μM [%]: 8 h
[1] = In vitro microsomal stability, human liver microsomes; assay type: in vitro ADME; details: for half-life at 1 μM: human, read-out: T1/2 @ hLM; for half-life at 1 μM / microsomal CLint at 1 μM: human liver microsomes, pH 7.4; for microsomal CLint at 1 μM: intrinsic clearance, read-out: Clint @ hLM; for Rem. @ hLM (%): remaining fraction after 30 min, 1 μM compound, 0.5 mg/mL human liver microsomes, 1 mM NADPH
Procedure, shortened: (§1)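 1 μM compound was incubated at 37 °C with 0.5 mg/mL human, mouse or rat liver microsomes and 1 mM NADPH in 100 mM phosphate buffer pH 7.4. Reactions were stopped at 0, 5, 15 and 30 min with cold acetonitrile containing propranolol internal standard.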

[2] = In vitro microsomal stability, mouse liver microsomes; assay type: in vitro ADME; details: for half-life at 1 μM: mouse, read-out: T1/2 @ mLM; for half-life at 1 μM / microsomal CLint at 1 μM: mouse liver microsomes, pH 7.4; for microsomal CLint at 1 μM: intrinsic clearance, read-out: Clint @ mLM; for Rem. @ mLM (%): remaining fraction after 30 min, 1 μM compound, 0.5 mg/mL mouse liver microsomes, 1 mM NADPH
Procedure, shortened: as §1

[3] = In vitro microsomal stability, rat liver microsomes; assay type: in vitro ADME; details: for microsomal CLint at 1 μM / half-life at 1 μM: pH 7.4, rat liver microsomes; for microsomal CLint at 1 μM: intrinsic clearance, read-out: Clint @ rLM; for half-life at 1 μM: rat, read-out: T1/2 @ rLM; for Rem. @ rLM (%): remaining fraction after 30 min, 1 μM compound, 0.5 mg/mL rat liver microsomes, 1 mM NADPH
Procedure, shortened: as §1

[4] = Kinetic solubility (nephelometry); assay type: physicochemical; details: aqueous buffer, kinetic from dmso stock; PBS pH 7.4, 1% DMSO, 1 hour at 37° C., light scattering at 625 nm
Method: Concentration (μM) was then calculated by segmental regression. Amiodarone (#A8423 Aldrich) was used as positive control.

CYP1A2 = CYP1A2 (Homo sapiens (Human), UniProt P05177); test: CYP inhibition in human liver microsomes
Method: (§2) CYP inhibition by test compounds in human liver microsomes (HLM) for seven major CYP450 isoforms CYP1A2, CYP2C9, CYP2D6, CYP2B6, CYP2C8, CYP2C19 and CYP3A4 were assessed. […] 50 μM phenacetin, 2 μM midazolam, 5 μM diclofenac, 50 μM mephenytoin, 80 μM bupropion, and 5 μM dextromethorphan were used as probe substrates of CYP1A2, CYP3A4, CYP2C9, CYP2C19, CYP2B6, and CYP2D6, respectively. The incubation times were 20 min for […], CYP2D6, CYP2C9, CYP2B6, and CYP2C8; 40 min for CYP2C19; and 10 min for CYP 3A4. Following incubations, the reactions were terminated with acetonitrile containing internal standard. The samples were centrifuged and the supernatants were analyzed for the formation of metabolites (1-hydroxymidazolam (CYP3A4), 4-hydroxydiclofenac (CYP2C9), 4-hydroxymephenytoin (CYP2C19) and dextrorphan (CYP2D6), hydroxybupropion (CYP2B6), acetaminophen (CYP1A2), desethylamodiaquine (CYP2C8)) by LC/MS/MS.

CYP2B6 = CYP2B6 (Homo sapiens (Human), UniProt P20813); test: CYP inhibition in human liver microsomes
Method: as §2

CYP2C19 = CYP2C19 (Homo sapiens (Human), UniProt P33261); test: CYP inhibition in human liver microsomes
Method: as §2

CYP2C9 = CYP2C9 (Homo sapiens (Human), UniProt P11712); test: CYP inhibition in human liver microsomes
Method: as §2

CYP2D6 = CYP2D6 (Homo sapiens (Human), UniProt P10635); test: CYP inhibition in human liver microsomes
Method: as §2

CYP3A4 = CYP3A4 (Homo sapiens (Human), UniProt P08684); test: CYP inhibition in human liver microsomes
Method: as §2

[5] = mouse, in vivo, po, 10 mg/kg; for AUCExtr [%] / F [%]: Balb/c
Method: (§3) Tested compounds were formulated at 1 mg/mL as a dosing solution for oral administration in vehicle A: 10% dimethylacetamide (DMAC), 20% propylene glycol, and 40% PEG-400 or vehicle B: 10% Kolliphor® EL and 10% ethanol (EtOH).
(§4) Animals were acclimated for a minimum period of 4 days upon arrival at the testing facility.
(§5) At the day of study, mice were weighed, identified by marking the tail with numbers using a non-toxic permanent marker, and designated into ten experimental groups (n=3 per group).
(§6) Non-dosed mice were used to collect samples of zero time points. […] Blood samples were centrifuged immediately at 9,000 g at 4° C. for 5 minutes and then plasmas were separated. Plasma samples were placed into individually labeled cryovials and stored in a −80° C. freezer until LC/MS/MS bioanalysis.
(§7) The bioanalysis of plasma samples was conducted with a QTRAP 4500 triple quadrupole mass spectrometer (Applied Biosystems SCIEX) in the positive ion mode and interfaced with an Ekspert Ultra LC100 UPLC System (Eksigent). Calibration standards (0.01 to 10 μM) and QCs (0.02, 0.2 and 2.0 μM) were prepared from naïve mouse plasma in parallel with mouse plasma study samples (60 μL) by precipitation with three volumes of ice cold internal standard solution (acetonitrile containing 20 μM of theophylline). The precipitated samples were centrifuged at 6,100 g for 30 min. Following centrifugation, an aliquot of each supernatant was transferred to an autosampler plate and diluted with two volumes of aqueous mobile phase (0.1% formic acid in water). Samples were injected onto a reverse phase analytical column (YMC Triart C18; 2.0×50 mm; 1.9 μm; YMC CO) and eluted with a gradient of 0.1% formic acid in Acetonitrile. Assayed test compound and internal standards were monitored by a multiple reaction monitoring (MRM) experiment using an Analyst software (v1.6.2, Applied Biosystems SCIEX). Quantitation was conducted using a MultiQuant software (v2.1, Applied Biosystems SCIEX) and the resulting calibration curve was fitted with a linear regression and 1/x weighting. The lower limits of quantitation were 1<LLQ <5 ng/mL.

in vivo = details: Balb/c, mouse, po, 10 mg/kg
Method: as §3, §4, §5, §6, §7

[6] = Oral bioavailability and PK parameters in Balb/c mice; details: single oral dose 10 mg/kg, volume of distribution
Method: as §3, §4, §5, §6, §7

Chain of CYP1A2 (P05177 whole entry, canonical isoform): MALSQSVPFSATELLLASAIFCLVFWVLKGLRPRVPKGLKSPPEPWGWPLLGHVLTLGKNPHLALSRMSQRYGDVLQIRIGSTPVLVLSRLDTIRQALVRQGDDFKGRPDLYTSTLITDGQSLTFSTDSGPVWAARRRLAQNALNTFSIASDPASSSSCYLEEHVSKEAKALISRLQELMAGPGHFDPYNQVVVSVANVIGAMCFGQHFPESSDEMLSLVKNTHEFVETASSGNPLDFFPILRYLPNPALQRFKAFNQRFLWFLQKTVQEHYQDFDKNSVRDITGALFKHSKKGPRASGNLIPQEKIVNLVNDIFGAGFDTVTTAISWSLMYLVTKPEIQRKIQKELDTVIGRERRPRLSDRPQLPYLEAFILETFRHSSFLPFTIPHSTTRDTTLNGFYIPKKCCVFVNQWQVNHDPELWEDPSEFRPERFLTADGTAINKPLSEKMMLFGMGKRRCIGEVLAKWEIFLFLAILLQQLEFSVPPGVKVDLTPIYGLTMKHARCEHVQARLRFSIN
Chain of CYP2D6 (P10635 whole entry): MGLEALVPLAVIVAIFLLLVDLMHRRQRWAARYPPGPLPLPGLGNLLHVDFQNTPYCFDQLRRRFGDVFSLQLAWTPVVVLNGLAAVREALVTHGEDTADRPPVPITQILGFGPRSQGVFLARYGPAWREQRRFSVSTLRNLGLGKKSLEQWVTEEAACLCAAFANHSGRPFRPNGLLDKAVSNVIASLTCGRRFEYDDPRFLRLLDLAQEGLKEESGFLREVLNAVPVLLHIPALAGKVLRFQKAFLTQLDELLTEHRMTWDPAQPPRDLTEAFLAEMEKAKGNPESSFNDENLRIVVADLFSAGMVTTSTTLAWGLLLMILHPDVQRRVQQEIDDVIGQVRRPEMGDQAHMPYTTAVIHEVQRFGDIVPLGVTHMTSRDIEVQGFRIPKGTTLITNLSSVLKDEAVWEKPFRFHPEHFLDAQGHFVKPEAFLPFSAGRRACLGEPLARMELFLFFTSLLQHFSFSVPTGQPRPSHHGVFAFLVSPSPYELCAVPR
Chain of CYP2B6 (P20813 whole entry): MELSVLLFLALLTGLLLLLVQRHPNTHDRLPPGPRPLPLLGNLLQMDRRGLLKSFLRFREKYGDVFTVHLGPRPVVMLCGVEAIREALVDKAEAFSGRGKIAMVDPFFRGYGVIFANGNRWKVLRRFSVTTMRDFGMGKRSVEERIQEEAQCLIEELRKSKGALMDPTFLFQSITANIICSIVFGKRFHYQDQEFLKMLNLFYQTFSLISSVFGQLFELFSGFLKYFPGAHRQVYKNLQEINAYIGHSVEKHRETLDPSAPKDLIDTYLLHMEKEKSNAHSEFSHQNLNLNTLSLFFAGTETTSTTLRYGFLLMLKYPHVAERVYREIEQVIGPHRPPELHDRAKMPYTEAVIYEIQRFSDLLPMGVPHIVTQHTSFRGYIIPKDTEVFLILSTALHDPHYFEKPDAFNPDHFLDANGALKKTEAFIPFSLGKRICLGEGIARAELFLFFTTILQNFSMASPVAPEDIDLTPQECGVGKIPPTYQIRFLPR
Chain of CYP2C9 (P11712 whole entry): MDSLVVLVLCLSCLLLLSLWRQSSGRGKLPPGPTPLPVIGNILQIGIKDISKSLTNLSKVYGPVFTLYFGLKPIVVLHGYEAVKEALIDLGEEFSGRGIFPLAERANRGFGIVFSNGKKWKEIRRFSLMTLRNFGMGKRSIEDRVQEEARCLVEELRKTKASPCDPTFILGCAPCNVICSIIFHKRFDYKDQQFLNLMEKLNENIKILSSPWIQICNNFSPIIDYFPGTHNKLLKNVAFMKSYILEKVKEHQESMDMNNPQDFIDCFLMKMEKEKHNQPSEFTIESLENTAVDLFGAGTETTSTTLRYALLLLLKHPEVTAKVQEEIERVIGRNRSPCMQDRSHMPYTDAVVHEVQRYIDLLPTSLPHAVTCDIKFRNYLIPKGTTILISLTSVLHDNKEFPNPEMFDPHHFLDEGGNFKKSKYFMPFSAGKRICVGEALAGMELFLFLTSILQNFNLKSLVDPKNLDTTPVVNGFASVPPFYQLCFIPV
Chain of CYP2C19 (P33261 whole entry): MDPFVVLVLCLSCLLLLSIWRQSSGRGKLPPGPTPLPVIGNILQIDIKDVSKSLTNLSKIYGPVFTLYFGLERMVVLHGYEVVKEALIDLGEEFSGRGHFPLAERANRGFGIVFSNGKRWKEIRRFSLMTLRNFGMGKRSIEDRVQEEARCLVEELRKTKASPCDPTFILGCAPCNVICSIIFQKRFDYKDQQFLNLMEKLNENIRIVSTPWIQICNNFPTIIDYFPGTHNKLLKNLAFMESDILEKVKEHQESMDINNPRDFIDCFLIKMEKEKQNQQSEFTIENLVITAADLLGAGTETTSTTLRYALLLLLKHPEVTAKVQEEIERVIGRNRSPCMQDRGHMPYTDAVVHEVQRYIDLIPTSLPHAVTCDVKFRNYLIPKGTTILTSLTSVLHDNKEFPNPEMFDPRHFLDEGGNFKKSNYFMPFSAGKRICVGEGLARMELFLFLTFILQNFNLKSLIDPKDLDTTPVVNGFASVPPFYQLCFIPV
Chain of CYP3A4 (P08684 whole entry): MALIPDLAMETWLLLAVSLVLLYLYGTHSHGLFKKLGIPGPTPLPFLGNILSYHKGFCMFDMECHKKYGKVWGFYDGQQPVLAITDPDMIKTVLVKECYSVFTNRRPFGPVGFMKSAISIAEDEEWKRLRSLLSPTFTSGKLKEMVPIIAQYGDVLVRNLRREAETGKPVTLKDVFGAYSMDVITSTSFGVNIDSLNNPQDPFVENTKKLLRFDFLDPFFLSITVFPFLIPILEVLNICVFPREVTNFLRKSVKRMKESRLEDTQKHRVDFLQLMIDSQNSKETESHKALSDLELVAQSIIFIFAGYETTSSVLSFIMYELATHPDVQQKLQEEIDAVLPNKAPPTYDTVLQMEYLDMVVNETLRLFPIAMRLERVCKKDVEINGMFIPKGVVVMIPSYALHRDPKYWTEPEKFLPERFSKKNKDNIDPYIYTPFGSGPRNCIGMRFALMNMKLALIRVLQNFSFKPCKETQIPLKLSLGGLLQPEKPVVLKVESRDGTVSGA

Compound	IC50 (ATF6) [µM]	Inh. ATF6-Luc @ 1 μM [%] (ATF6)	half-life at 1 μM [1] [min]	microsomal CLint at 1 μM [1] [µL/min/mg]	Rem. @ hLM (%) [1] [%]	half-life at 1 μM [2] [min]	microsomal CLint at 1 μM [2] [µL/min/mg]	Rem. @ mLM (%) [2] [%]	microsomal CLint at 1 μM [3] [µL/min/mg]	half-life at 1 μM [3] [min]	Rem. @ rLM (%) [3] [%]	solubility kinetic at 1 h [4] [µM]	IC50 (CYP1A2) [µM]	IC50 (CYP2B6) [µM]	IC50 (CYP2C19) [µM]	IC50 (CYP2C9) [µM]	IC50 (CYP2D6) [µM]	IC50 (CYP3A4) [µM]	AUCExtr [%] [5] [%]	F [%] [5] [%]	also measured
CC(c1ccc(C(F)(F)F)cc1C(F)(F)F)n1cc(NC(=O)c2cc(-c3ccccn3)on2)cn1 (single isomer, unassigned) [“Enantiomer A” of Example S5, N-(1-(1-(2,4-bis(trifluoromethyl)phenyl)ethyl)-1H-pyrazol-4-yl)-5-(pyridin-2-yl)isoxazole-3-carboxamide]	< 1	+++ (+++ refers to >50% inhibition at 1 μM test compound)	99.8	13.9	81.9	34.9	39.7	53.8	11.5	121	80	4.68 (≈ 2.32 µg/mL)	> 50	2.49	2.31	3.07	2.3	> 50	43	66.3	Last time point for AUClast [5]: 8 h; AUC(0-inf) (in vivo): 32400 ng·h/mL; AUC(0-t) (in vivo): 18500 ng·h/mL; Cmax (in vivo): 4590 ng/mL; Tmax (in vivo): 60 min; half-life (in vivo): 413 min; Vz [6]: 3.07 L/kg
CC(c1ccc(C(F)(F)F)cc1C(F)(F)F)n1cc(NC(=O)c2cc(-c3ccco3)on2)cn1 (single isomer, unassigned) [“Enantiomer A” of Example S6, N-(1-(1-(2,4-bis(trifluoromethyl)phenyl)ethyl)-1H-pyrazol-4-yl)-5-(furan-2-yl)isoxazole-3-carboxamide]	< 1	+++ (+++ refers to >50% inhibition at 1 μM test compound)	24	57.8	41.8	5.97	232	3.05	283	4.89	1.4	27 (≈ 13.1 µg/mL)	15.3	4.18	3.54	7.88	23.7	> 50	1.73	9.6	Last time point for AUClast [5]: 8 h; AUC(0-inf) (in vivo): 626 ng·h/mL; AUC(0-t) (in vivo): 615 ng·h/mL; Cmax (in vivo): 579 ng/mL; Tmax (in vivo): 30 min; half-life (in vivo): 96 min
